{"source": "ChEMBL document CHEMBL3045459", "about": "(Med Chem Res, 2013)", "type_in_all_cases": "functional", "key": {"Alternaria alternata": {"tested_on": "Alternaria alternata", "assay": "Antifungal activity against Alternaria alternata assessed as growth inhibition after 48 hr by broth dilution method"}, "Staphylococcus aureus": {"tested_on": "Staphylococcus aureus", "assay": "Antibacterial activity against Staphylococcus aureus assessed as growth inhibition after 24 hr by agar well diffusion method"}, "Bacillus subtilis": {"tested_on": "Bacillus subtilis", "assay": "Antibacterial activity against Bacillus subtilis assessed as growth inhibition after 24 hr by agar well diffusion method"}, "Salmonella typhi": {"tested_on": "Salmonella typhi", "assay": "Antibacterial activity against Salmonella enterica subsp. enterica serovar Typhi assessed as growth inhibition after 24 hr by agar well diffusion method"}, "Shigella flexneri": {"tested_on": "Shigella flexneri", "assay": "Antibacterial activity against Shigella flexneri assessed as growth inhibition after 24 hr by agar well diffusion method; for DIZ: test concentration or dose not given here"}, "Escherichia coli": {"tested_on": "Escherichia coli", "assay": "Antibacterial activity against Escherichia coli assessed as growth inhibition after 24 hr by agar well diffusion method"}, "Pseudomonas aeruginosa": {"tested_on": "Pseudomonas aeruginosa", "assay": "Antibacterial activity against Pseudomonas aeruginosa assessed as growth inhibition after 24 hr by agar well diffusion method"}, "Aspergillus flavus": {"tested_on": "Aspergillus flavus", "assay": "Antifungal activity against Aspergillus flavus assessed as growth inhibition after 48 hr by broth dilution method"}, "Aspergillus fumigatus": {"tested_on": "Aspergillus fumigatus", "assay": "Antifungal activity against Aspergillus fumigatus assessed as growth inhibition after 48 hr by broth dilution method"}}, "note": "Active and inactive are the calls of the source. No cut-off for these calls is given here."}
{"smiles": "Nc1nc(-c2ccc(I)cc2)cc(-c2ccc(-n3ccnc3)cc2)n1", "values": [{"measurement": "MIC", "setting": "Alternaria alternata", "value": 1000, "unit": "µg/mL"}, {"measurement": "diameter of the inhibition zone (DIZ)", "setting": "Staphylococcus aureus", "value": 16, "unit": "mm"}, {"measurement": "diameter of the inhibition zone (DIZ)", "setting": "Bacillus subtilis", "value": 21, "unit": "mm"}, {"measurement": "growth inhibition (GI)", "setting": "Salmonella typhi", "value": "inactive"}, {"measurement": "growth inhibition (GI)", "setting": "Shigella flexneri", "value": "inactive"}, {"measurement": "diameter of the inhibition zone (DIZ)", "setting": "Escherichia coli", "value": 20, "unit": "mm"}, {"measurement": "growth inhibition (GI)", "setting": "Pseudomonas aeruginosa", "value": "inactive"}, {"measurement": "MIC", "setting": "Aspergillus flavus", "value": 1000, "unit": "µg/mL"}, {"measurement": "MIC", "setting": "Aspergillus fumigatus", "value": 1000, "unit": "µg/mL"}]}
{"smiles": "COc1cccc(-c2cc(-c3ccc(-n4ccnc4)cc3)nc(N)n2)c1", "values": [{"measurement": "MIC", "setting": "Alternaria alternata", "value": 1000, "unit": "µg/mL"}, {"measurement": "diameter of the inhibition zone (DIZ)", "setting": "Staphylococcus aureus", "value": 14, "unit": "mm"}, {"measurement": "growth inhibition (GI)", "setting": "Bacillus subtilis", "value": "inactive"}, {"measurement": "growth inhibition (GI)", "setting": "Salmonella typhi", "value": "inactive"}, {"measurement": "growth inhibition (GI)", "setting": "Shigella flexneri", "value": "inactive"}, {"measurement": "diameter of the inhibition zone (DIZ)", "setting": "Escherichia coli", "value": 13, "unit": "mm"}, {"measurement": "diameter of the inhibition zone (DIZ)", "setting": "Pseudomonas aeruginosa", "value": 12, "unit": "mm"}, {"measurement": "MIC", "setting": "Aspergillus flavus", "value": 1000, "unit": "µg/mL"}, {"measurement": "MIC", "setting": "Aspergillus fumigatus", "value": "> 1000", "unit": "µg/mL"}]}
{"smiles": "C[C@@H](O)[C@H]1C(=O)N2C(C(=O)O)=C(SCCNC=N)C[C@H]12", "note": "[IMIPENEM ANHYDROUS]", "values": [{"measurement": "diameter of the inhibition zone (DIZ)", "setting": "Staphylococcus aureus", "value": 30, "unit": "mm"}, {"measurement": "diameter of the inhibition zone (DIZ)", "setting": "Bacillus subtilis", "value": 30, "unit": "mm"}, {"measurement": "diameter of the inhibition zone (DIZ)", "setting": "Salmonella typhi", "value": 25, "unit": "mm"}, {"measurement": "diameter of the inhibition zone (DIZ)", "setting": "Shigella flexneri", "value": 30, "unit": "mm"}, {"measurement": "diameter of the inhibition zone (DIZ)", "setting": "Escherichia coli", "value": 35, "unit": "mm"}, {"measurement": "diameter of the inhibition zone (DIZ)", "setting": "Pseudomonas aeruginosa", "value": 31, "unit": "mm"}]}
{"smiles": "COc1ccc(-c2cc(-c3ccc(-n4ccnc4)cc3)nc(N)n2)cc1", "values": [{"measurement": "MIC", "setting": "Alternaria alternata", "value": "> 1000", "unit": "µg/mL"}, {"measurement": "growth inhibition (GI)", "setting": "Staphylococcus aureus", "value": "inactive"}, {"measurement": "diameter of the inhibition zone (DIZ)", "setting": "Bacillus subtilis", "value": 14, "unit": "mm"}, {"measurement": "growth inhibition (GI)", "setting": "Salmonella typhi", "value": "inactive"}, {"measurement": "diameter of the inhibition zone (DIZ)", "setting": "Shigella flexneri", "value": 11, "unit": "mm"}, {"measurement": "diameter of the inhibition zone (DIZ)", "setting": "Escherichia coli", "value": 12, "unit": "mm"}, {"measurement": "diameter of the inhibition zone (DIZ)", "setting": "Pseudomonas aeruginosa", "value": 11, "unit": "mm"}, {"measurement": "MIC", "setting": "Aspergillus flavus", "value": "> 1000", "unit": "µg/mL"}, {"measurement": "MIC", "setting": "Aspergillus fumigatus", "value": 1000, "unit": "µg/mL"}]}
{"smiles": "Nc1nc(-c2ccc(Br)cc2)cc(-c2ccc(-n3ccnc3)cc2)n1", "values": [{"measurement": "MIC", "setting": "Alternaria alternata", "value": "> 1000", "unit": "µg/mL"}, {"measurement": "diameter of the inhibition zone (DIZ)", "setting": "Staphylococcus aureus", "value": 12, "unit": "mm"}, {"measurement": "diameter of the inhibition zone (DIZ)", "setting": "Bacillus subtilis", "value": 13, "unit": "mm"}, {"measurement": "growth inhibition (GI)", "setting": "Salmonella typhi", "value": "inactive"}, {"measurement": "diameter of the inhibition zone (DIZ)", "setting": "Shigella flexneri", "value": 12, "unit": "mm"}, {"measurement": "diameter of the inhibition zone (DIZ)", "setting": "Escherichia coli", "value": 12, "unit": "mm"}, {"measurement": "growth inhibition (GI)", "setting": "Pseudomonas aeruginosa", "value": "inactive"}, {"measurement": "MIC", "setting": "Aspergillus flavus", "value": 1000, "unit": "µg/mL"}, {"measurement": "MIC", "setting": "Aspergillus fumigatus", "value": 1000, "unit": "µg/mL"}]}
{"smiles": "Nc1nc(-c2ccc(Cl)cc2)cc(-c2ccc(-n3ccnc3)cc2)n1", "values": [{"measurement": "MIC", "setting": "Alternaria alternata", "value": 1000, "unit": "µg/mL"}, {"measurement": "growth inhibition (GI)", "setting": "Staphylococcus aureus", "value": "inactive"}, {"measurement": "diameter of the inhibition zone (DIZ)", "setting": "Bacillus subtilis", "value": 12, "unit": "mm"}, {"measurement": "growth inhibition (GI)", "setting": "Salmonella typhi", "value": "inactive"}, {"measurement": "diameter of the inhibition zone (DIZ)", "setting": "Shigella flexneri", "value": 11, "unit": "mm"}, {"measurement": "diameter of the inhibition zone (DIZ)", "setting": "Escherichia coli", "value": 18, "unit": "mm"}, {"measurement": "growth inhibition (GI)", "setting": "Pseudomonas aeruginosa", "value": "inactive"}, {"measurement": "MIC", "setting": "Aspergillus flavus", "value": 1000, "unit": "µg/mL"}, {"measurement": "MIC", "setting": "Aspergillus fumigatus", "value": 1000, "unit": "µg/mL"}]}
{"smiles": "COc1cc(-c2cc(-c3ccc(-n4ccnc4)cc3)nc(N)n2)ccc1OO", "values": [{"measurement": "MIC", "setting": "Alternaria alternata", "value": "> 1000", "unit": "µg/mL"}, {"measurement": "diameter of the inhibition zone (DIZ)", "setting": "Staphylococcus aureus", "value": 13, "unit": "mm"}, {"measurement": "growth inhibition (GI)", "setting": "Bacillus subtilis", "value": "inactive"}, {"measurement": "growth inhibition (GI)", "setting": "Salmonella typhi", "value": "inactive"}, {"measurement": "growth inhibition (GI)", "setting": "Shigella flexneri", "value": "inactive"}, {"measurement": "diameter of the inhibition zone (DIZ)", "setting": "Escherichia coli", "value": 15, "unit": "mm"}, {"measurement": "diameter of the inhibition zone (DIZ)", "setting": "Pseudomonas aeruginosa", "value": 10, "unit": "mm"}, {"measurement": "MIC", "setting": "Aspergillus flavus", "value": 1000, "unit": "µg/mL"}, {"measurement": "MIC", "setting": "Aspergillus fumigatus", "value": "> 1000", "unit": "µg/mL"}]}
{"smiles": "Nc1nc(-c2ccc(-n3ccnc3)cc2)cc(-c2ccc(Cl)c(Cl)c2Cl)n1", "values": [{"measurement": "MIC", "setting": "Alternaria alternata", "value": "> 1000", "unit": "µg/mL"}, {"measurement": "diameter of the inhibition zone (DIZ)", "setting": "Staphylococcus aureus", "value": 15, "unit": "mm"}, {"measurement": "diameter of the inhibition zone (DIZ)", "setting": "Bacillus subtilis", "value": 15, "unit": "mm"}, {"measurement": "growth inhibition (GI)", "setting": "Salmonella typhi", "value": "inactive"}, {"measurement": "diameter of the inhibition zone (DIZ)", "setting": "Shigella flexneri", "value": 11, "unit": "mm"}, {"measurement": "diameter of the inhibition zone (DIZ)", "setting": "Escherichia coli", "value": 18, "unit": "mm"}, {"measurement": "growth inhibition (GI)", "setting": "Pseudomonas aeruginosa", "value": "inactive"}, {"measurement": "MIC", "setting": "Aspergillus flavus", "value": "> 1000", "unit": "µg/mL"}, {"measurement": "MIC", "setting": "Aspergillus fumigatus", "value": "> 1000", "unit": "µg/mL"}]}
{"smiles": "Nc1nc(-c2ccc(-n3ccnc3)cc2)cc(-c2cc(Cl)ccc2Cl)n1", "values": [{"measurement": "MIC", "setting": "Alternaria alternata", "value": "> 1000", "unit": "µg/mL"}, {"measurement": "growth inhibition (GI)", "setting": "Staphylococcus aureus", "value": "inactive"}, {"measurement": "diameter of the inhibition zone (DIZ)", "setting": "Bacillus subtilis", "value": 12, "unit": "mm"}, {"measurement": "growth inhibition (GI)", "setting": "Salmonella typhi", "value": "inactive"}, {"measurement": "diameter of the inhibition zone (DIZ)", "setting": "Shigella flexneri", "value": 12, "unit": "mm"}, {"measurement": "diameter of the inhibition zone (DIZ)", "setting": "Escherichia coli", "value": 12, "unit": "mm"}, {"measurement": "growth inhibition (GI)", "setting": "Pseudomonas aeruginosa", "value": "inactive"}, {"measurement": "MIC", "setting": "Aspergillus flavus", "value": "> 1000", "unit": "µg/mL"}, {"measurement": "MIC", "setting": "Aspergillus fumigatus", "value": "> 1000", "unit": "µg/mL"}]}
{"smiles": "Nc1nc(-c2ccc(-n3ccnc3)cc2)cc(-c2ccc(Cl)cc2Cl)n1", "values": [{"measurement": "MIC", "setting": "Alternaria alternata", "value": 1000, "unit": "µg/mL"}, {"measurement": "diameter of the inhibition zone (DIZ)", "setting": "Staphylococcus aureus", "value": 11, "unit": "mm"}, {"measurement": "growth inhibition (GI)", "setting": "Bacillus subtilis", "value": "inactive"}, {"measurement": "growth inhibition (GI)", "setting": "Salmonella typhi", "value": "inactive"}, {"measurement": "diameter of the inhibition zone (DIZ)", "setting": "Shigella flexneri", "value": 10, "unit": "mm"}, {"measurement": "diameter of the inhibition zone (DIZ)", "setting": "Escherichia coli", "value": 14, "unit": "mm"}, {"measurement": "growth inhibition (GI)", "setting": "Pseudomonas aeruginosa", "value": "inactive"}, {"measurement": "MIC", "setting": "Aspergillus flavus", "value": "> 1000", "unit": "µg/mL"}, {"measurement": "MIC", "setting": "Aspergillus fumigatus", "value": "> 1000", "unit": "µg/mL"}]}
{"smiles": "Nc1nc(-c2ccc(F)cc2)cc(-c2ccc(-n3ccnc3)cc2)n1", "values": [{"measurement": "MIC", "setting": "Alternaria alternata", "value": 1000, "unit": "µg/mL"}, {"measurement": "growth inhibition (GI)", "setting": "Staphylococcus aureus", "value": "inactive"}, {"measurement": "growth inhibition (GI)", "setting": "Bacillus subtilis", "value": "inactive"}, {"measurement": "growth inhibition (GI)", "setting": "Salmonella typhi", "value": "inactive"}, {"measurement": "diameter of the inhibition zone (DIZ)", "setting": "Shigella flexneri", "value": 12, "unit": "mm"}, {"measurement": "diameter of the inhibition zone (DIZ)", "setting": "Escherichia coli", "value": 16, "unit": "mm"}, {"measurement": "growth inhibition (GI)", "setting": "Pseudomonas aeruginosa", "value": "inactive"}, {"measurement": "MIC", "setting": "Aspergillus flavus", "value": 1000, "unit": "µg/mL"}, {"measurement": "MIC", "setting": "Aspergillus fumigatus", "value": 500, "unit": "µg/mL"}]}
{"smiles": "Nc1nc(-c2ccccc2)cc(-c2ccc(-n3ccnc3)cc2)n1", "values": [{"measurement": "MIC", "setting": "Alternaria alternata", "value": "> 1000", "unit": "µg/mL"}, {"measurement": "growth inhibition (GI)", "setting": "Staphylococcus aureus", "value": "inactive"}, {"measurement": "diameter of the inhibition zone (DIZ)", "setting": "Bacillus subtilis", "value": 13, "unit": "mm"}, {"measurement": "growth inhibition (GI)", "setting": "Salmonella typhi", "value": "inactive"}, {"measurement": "growth inhibition (GI)", "setting": "Shigella flexneri", "value": "inactive"}, {"measurement": "diameter of the inhibition zone (DIZ)", "setting": "Escherichia coli", "value": 11, "unit": "mm"}, {"measurement": "growth inhibition (GI)", "setting": "Pseudomonas aeruginosa", "value": "inactive"}, {"measurement": "MIC", "setting": "Aspergillus flavus", "value": 1000, "unit": "µg/mL"}, {"measurement": "MIC", "setting": "Aspergillus fumigatus", "value": 1000, "unit": "µg/mL"}]}
